According to the NIST ThermoML archive (doi:10.1021/je400250u):
± gives the expanded uncertainty stated by the source.

Legend:
[1] = refractive index (Na D-line) (dimensionless); xn = mol fraction of the nth substance listed; settings: 101 kPa, Liquid, Standard Abbe refractometry
[2] = xn = mol fraction of the nth substance listed; settings: 100 kPa, Liquid; for viscosity: Capillary tube (Ostwald / Ubbelohde) method; for mass density: Vibrating tube method

C1CC[C@H]2CCCC[C@@H]2C1 [trans-decahydronaphthalene] + CCCCCCCCCC
Settings | mass density, [2] [kg/m3] | refractive index, [1] | viscosity, [2] [mPa·s]
293.15 K, x1 = 0.1035 | 743.5 ± 0.22 | – | 0.98 ± 0.012
293.15 K, x1 = 0.2016 | 755.54 ± 0.21 | – | 1.035 ± 0.012
293.15 K, x1 = 0.3001 | 768 ± 0.2 | – | 1.099 ± 0.012
293.15 K, x1 = 0.3994 | 781.01 ± 0.19 | – | 1.175 ± 0.013
293.15 K, x1 = 0.5036 | 795.1 ± 0.18 | – | 1.272 ± 0.013
293.15 K, x1 = 0.6062 | 809.53 ± 0.17 | – | 1.388 ± 0.013
293.15 K, x1 = 0.6989 | 822.98 ± 0.16 | – | 1.514 ± 0.013
293.15 K, x1 = 0.7891 | 836.46 ± 0.15 | – | 1.649 ± 0.014
293.15 K, x1 = 0.8949 | 852.8 ± 0.14 | – | 1.848 ± 0.014
293.15 K, x1 = 1 | 869.78 ± 0.13 | – | 2.112 ± 0.015
298.15 K, x1 = 0.1035 | 739.74 ± 0.22 | 1.4144 ± 0.0007 | 0.91 ± 0.012
298.15 K, x1 = 0.2016 | 751.79 ± 0.21 | 1.4192 ± 0.0007 | 0.958 ± 0.012
298.15 K, x1 = 0.3001 | 764.27 ± 0.2 | 1.4243 ± 0.0007 | 1.019 ± 0.012
298.15 K, x1 = 0.3994 | 777.28 ± 0.19 | 1.4301 ± 0.0007 | 1.087 ± 0.012
298.15 K, x1 = 0.5036 | 791.38 ± 0.18 | 1.4355 ± 0.0007 | 1.174 ± 0.012
298.15 K, x1 = 0.6062 | 805.81 ± 0.17 | 1.4414 ± 0.0007 | 1.28 ± 0.013
298.15 K, x1 = 0.6989 | 819.26 ± 0.16 | 1.4471 ± 0.0007 | 1.394 ± 0.013
298.15 K, x1 = 0.7891 | 832.75 ± 0.15 | 1.4524 ± 0.0007 | 1.514 ± 0.013
298.15 K, x1 = 0.8949 | 849.09 ± 0.15 | 1.4592 ± 0.0007 | 1.694 ± 0.014
298.15 K, x1 = 1 | 866.07 ± 0.13 | 1.4662 ± 0.0007 | 1.925 ± 0.015
303.15 K, x1 = 0.1035 | 735.97 ± 0.22 | – | 0.848 ± 0.012
303.15 K, x1 = 0.2016 | 748.02 ± 0.21 | – | 0.89 ± 0.012
303.15 K, x1 = 0.3001 | 760.51 ± 0.2 | – | 0.946 ± 0.012
303.15 K, x1 = 0.3994 | 773.52 ± 0.19 | – | 1.01 ± 0.012
303.15 K, x1 = 0.5036 | 787.63 ± 0.18 | – | 1.09 ± 0.012
303.15 K, x1 = 0.6062 | 802.07 ± 0.17 | – | 1.185 ± 0.012
303.15 K, x1 = 0.6989 | 815.53 ± 0.16 | – | 1.285 ± 0.013
303.15 K, x1 = 0.7891 | 829.02 ± 0.15 | – | 1.396 ± 0.013
303.15 K, x1 = 0.8949 | 845.37 ± 0.15 | – | 1.555 ± 0.013
303.15 K, x1 = 1 | 862.34 ± 0.14 | – | 1.769 ± 0.014
308.15 K, x1 = 0.1035 | 732.17 ± 0.22 | 1.4099 ± 0.0007 | 0.794 ± 0.012
308.15 K, x1 = 0.2016 | 744.24 ± 0.21 | 1.4153 ± 0.0007 | 0.834 ± 0.012
308.15 K, x1 = 0.3001 | 756.74 ± 0.2 | 1.4204 ± 0.0007 | 0.884 ± 0.012
308.15 K, x1 = 0.3994 | 769.76 ± 0.19 | 1.4256 ± 0.0007 | 0.941 ± 0.012
308.15 K, x1 = 0.5036 | 783.88 ± 0.18 | 1.4317 ± 0.0007 | 1.013 ± 0.012
308.15 K, x1 = 0.6062 | 798.32 ± 0.17 | 1.4371 ± 0.0007 | 1.101 ± 0.012
308.15 K, x1 = 0.6989 | 811.79 ± 0.16 | 1.4431 ± 0.0007 | 1.197 ± 0.012
308.15 K, x1 = 0.7891 | 825.29 ± 0.15 | 1.4484 ± 0.0007 | 1.293 ± 0.013
308.15 K, x1 = 0.8949 | 841.64 ± 0.15 | 1.4553 ± 0.0007 | 1.436 ± 0.013
308.15 K, x1 = 1 | 858.61 ± 0.14 | 1.4618 ± 0.0007 | 1.628 ± 0.013
313.15 K, x1 = 0.1035 | 728.37 ± 0.22 | – | 0.744 ± 0.011
313.15 K, x1 = 0.2016 | 740.45 ± 0.21 | – | 0.778 ± 0.011
313.15 K, x1 = 0.3001 | 752.95 ± 0.2 | – | 0.828 ± 0.011
313.15 K, x1 = 0.3994 | 765.99 ± 0.19 | – | 0.881 ± 0.012
313.15 K, x1 = 0.5036 | 780.11 ± 0.18 | – | 0.947 ± 0.012
313.15 K, x1 = 0.6062 | 794.56 ± 0.17 | – | 1.024 ± 0.012
313.15 K, x1 = 0.6989 | 808.04 ± 0.16 | – | 1.113 ± 0.012
313.15 K, x1 = 0.7891 | 821.54 ± 0.16 | – | 1.201 ± 0.012
313.15 K, x1 = 0.8949 | 837.9 ± 0.15 | – | 1.33 ± 0.013
313.15 K, x1 = 1 | 854.88 ± 0.14 | – | 1.505 ± 0.013
318.15 K, x1 = 0.1035 | 724.55 ± 0.22 | 1.4055 ± 0.0007 | 0.702 ± 0.011
318.15 K, x1 = 0.2016 | 736.64 ± 0.21 | 1.4112 ± 0.0007 | 0.734 ± 0.011
318.15 K, x1 = 0.3001 | 749.16 ± 0.2 | 1.4162 ± 0.0007 | 0.777 ± 0.011
318.15 K, x1 = 0.3994 | 762.2 ± 0.19 | 1.4211 ± 0.0007 | 0.826 ± 0.011
318.15 K, x1 = 0.5036 | 776.34 ± 0.18 | 1.4271 ± 0.0007 | 0.887 ± 0.012
318.15 K, x1 = 0.6062 | 790.8 ± 0.17 | 1.4336 ± 0.0007 | 0.959 ± 0.012
318.15 K, x1 = 0.6989 | 804.28 ± 0.16 | 1.4389 ± 0.0007 | 1.032 ± 0.012
318.15 K, x1 = 0.7891 | 817.79 ± 0.16 | 1.4448 ± 0.0007 | 1.119 ± 0.012
318.15 K, x1 = 0.8949 | 834.16 ± 0.15 | 1.4518 ± 0.0007 | 1.237 ± 0.012
318.15 K, x1 = 1 | 851.14 ± 0.14 | 1.4581 ± 0.0007 | 1.394 ± 0.013
323.15 K, x1 = 0.1035 | 720.72 ± 0.22 | – | 0.662 ± 0.011
323.15 K, x1 = 0.2016 | 732.82 ± 0.21 | – | 0.696 ± 0.011
323.15 K, x1 = 0.3001 | 745.35 ± 0.2 | – | 0.732 ± 0.011
323.15 K, x1 = 0.3994 | 758.4 ± 0.19 | – | 0.777 ± 0.011
323.15 K, x1 = 0.5036 | 772.55 ± 0.18 | – | 0.834 ± 0.011
323.15 K, x1 = 0.6062 | 787.02 ± 0.17 | – | 0.896 ± 0.012
323.15 K, x1 = 0.6989 | 800.51 ± 0.16 | – | 0.966 ± 0.012
323.15 K, x1 = 0.7891 | 814.04 ± 0.16 | – | 1.046 ± 0.012
323.15 K, x1 = 0.8949 | 830.41 ± 0.15 | – | 1.154 ± 0.012
323.15 K, x1 = 1 | 847.4 ± 0.14 | – | 1.295 ± 0.012
